# Results reported in publication PMC7956476, “Quinoline Functionalized Schiff Base Silver (I) Complexes: Interactions with Biomolecules and In Vitro Cytotoxicity, Antioxidant and Antimicrobial Activities” (Molecules, 2021).
# Read-outs that look alike come from different tables or passages of the source.
# What was measured:
# [1] = system: Escherichia coli ATCC 25922; parameters: method as in doi:10.1016/j.poly.2019.06.038; settings: standard; E. coli; cited from earlier work
# [2] = system: Staphylococcus aureus ATCC 700699 (methicillin-resistant); parameters: method as in doi:10.1016/j.poly.2019.06.038; settings: standard; cited from earlier work
# [3] = system: Staphylococcus aureus ATCC 25923; parameters: method as in doi:10.1016/j.poly.2019.06.038; settings: standard; S. aureus; cited from earlier work
# [4] = system: Salmonella typhimurium ATCC 14026; settings: standard; S. typhi; cited from earlier work
# [5] = system: Pseudomonas aeruginosa ATCC 27853; parameters: method as in doi:10.1016/j.poly.2019.06.038; settings: standard; P. aeruginosa; cited from earlier work
# [6] = Ferric reducing antioxidant power (FRAP) assay; format: biochemical; settings: done in triplicate
# Source text: Antioxidants are important in protecting the human body against damage by reactive oxygen species (ROS). Accumulation of ROS in the cells may lead to damage of the DNA, RNA, and proteins which subsequently leads to several physiological disorders such as cardiovascular disease, diabetes, rheumatism, atherosclerosis, cancer, aging and cell death. […] The free radical scavenging ability of all ligands and complexes in this study were investigated using ferric reducing antioxidant power (FRAP). In antioxidant studies, FRAP assay is often preferred because it is simple, fast, economical, and direct in antioxidant measurement. FRAP assay is based on the electron-donating ability of an antioxidant compound. This involves the reduction of a colorless Fe^3+ tripyridyltriazine complex (Fe^3+ (TPTZ)) to an intense blue-colored Fe^2+ tripyridyltriazine complex (Fe^2+ (TPTZ)) by the electron-donating antioxidants at low pH [69]. The reducing power is to determine the reductive ability of the test compounds.
# Antioxidant activity studies of L1–L5 and Q1–Q15 were done using ferric reducing antioxidant power (FRAP) assay. The ferric reducing antioxidant power assay is often used to evaluate the ability of an antioxidant to donate an electron. […] The resulting mixture was incubated at 50 °C for 20 min, and 2.5 mL of 10% trichloroacetic acid was added to acidify the mixture. After that, 1 mL of the acidified mixture was added to 1 mL of distilled water and 0.5 mL of 0.1% FeCl3. The absorbance of the resulting solution was then measured at 700 nm. The antioxidant power of the compounds was expressed as a percentage of ferric reducing antioxidant power Ascorbic acid equivalent, as shown in Equation (4). (4) % FRAP =Absorbance of Absorbance of Sample/Absorbance of Ascorbic Acid ×100
# [7] = target: bovine serum albumin (BSA) (Bos taurus, UniProt P02769); assay: Albumin binding by absorption spectroscopy titration
# Source text: Bovine serum albumin (BSA) was used as the protein standard in this study because of its close resemblance to human serum albumin (HSA), its stability, high solubility, neutrality in many biochemical reactions and low cost. In protein binding study, absorption spectroscopy titration is a known method used in studying the conformational changes in proteins, and this protein is characterized by an intense absorbance peak at 280 nm depicting the microenvironment around tyrosine and tryptophan residue polarity.
# The absorbance assay of albumin binding is a very simple method used in identifying the conformational changes in protein. […] A stock solution of bovine serum albumin (BSA) was prepared by dissolving an appropriate amount of BSA in phosphate buffer saline solution (pH 7.2) under constant stirring for 1 h at 25 °C. It was kept at 4 °C and used within four days. […] The stock solution of the complex was prepared by dissolving 1 mmol of the complexes in DMSO. The absorption titration assay was done by adding different concentrations (0–10 µM) of the complexes to a constant BSA concentration (6 µM). The sample solution was incubated after each addition of the concentrations for 10 min at 25 °C before recording the absorbance at λmax 280 nm.
# CT-DNA-EB adduct = assay: Fluorescence competitive displacement of ethidium bromide from CT-DNA; format: binding, calf; settings: for CT-DNA-EB-Complex Ksv (M^−1) × 10^4: Stern–Volmer quenching constant, EB displacement, 25 °C; for CT-DNA-EB-Complex Kq (M^−1S^−1) × 10^12: bimolecular quenching constant, Ksv = Kqτo, τo 10^−8 s; for CT-DNA-EB-Complex Kbin (M^−1) × 10^5: binding constant from double-logarithmic plot
# Source text: The Stern–Volmer plot approach was used based on the fact that the Stern–Volmer plots for Q1–Q15 (Figure 5c), were linear an indication of only one mechanism for the quenching fluorescence, i.e., either dynamic or static. […] (1) Ksv=Kqτo where Ksv, Kq, and τo represent Stern–Volmer quenching constant, bimolecular quenching constant, and an average lifetime of the fluorophore in the absence of the quencher, respectively. τₒ normally takes about 10^−8 s in biomacromolecules.
# The double-logarithmic Equation (2) was used in determining the binding constant of complexes Q1–Q15 and CT-DNA. (2) logFo−F/F=logKb+n logQ
# A competitive displacement study was carried out using fluorescence spectroscopy between CT-DNA pre-treated with ethidium bromide (EB) and complexes Q1–Q15 to establish the complexes′ actual mode of binding to CT-DNA. […] The competitive luminescence displacement assay was done using a modified method. Pre-treated 15 µM solution of EB with 15 µM of CT-DNA was prepared in a phosphate buffer of pH 7.2 and left to equilibrate for 30 min. Keeping CT-DNA-EB concentrations constant, different concentrations (0–20 µM) of the complexes were added at 8 min incubation interval at room temperature. The fluorescence quenching ability of CT-DNA bound EB by the complexes were recorded in the wavelength range of 530–700 nm with an excitation wavelength at 525 nm at 25 °C. (6) Fo/F=1+KSVQ=1+KqτoQ
# A Stern–Volmer (Equation (6)) was used to evaluate the CT-DNA-EB fluorescence quenching of the complexes. Where Fo and F denote the relative fluorescence intensities of CT-DNA in the absence and presence of the quencher, Ksv, Stern–Volmer quenching constant, [Q], quencher concentration, Kq, bimolecular quenching constant and τo, average lifetime of the fluorophore in the absence of the quencher which is typically equal to 10^−8 s in biomacromolecules.
# calf thymus DNA (CT-DNA) = assay: CT-DNA electronic absorption titration (Wolfe–Shimer); format: binding; settings: intrinsic binding constant, absorption titration, PBS pH 7.2
# Procedure: The interaction of the L1–L5 and complexes Q1–Q15 with calf thymus-DNA was carried out in a Phosphate buffer saline solution pH 7.2 stored at 4 °C. The DNA stock solution was prepared by dissolving CT-DNA sodium salt in Phosphate buffer saline solution with continuous stirring overnight. It was filtered and stored at 4 °C and used within four days. […] A fixed amount of the L1–L5 and complexes Q1–Q15 (50 µM) were prepared by dissolving an appropriate amount in DMSO. […] Therefore, in all the experimental of the interaction of L1–L5 and complexes Q1–Q15 with biomolecules, the final concentration of DMSO in the incubation mixture was ~2% (v/v).
# The binding modes of L1–L5 and complexes Q1–Q15 to CT-DNA were characterized through electronic absorption titration by varying concentrations of CT-DNA (0–30 µM) in phosphate buffer saline solution against fixed concentrations (20 µM) of L1–L5 and complexes Q1–Q15. […] The absorbance of CT-DNA is cancelled by adding equivalent amounts of CT-DNA to both the tested compounds and the reference solutions.
# [8] = system: Salmonella typhimurium ATCC 14026; assay: Minimum inhibitory concentration (MIC), spotting on Müeller–Hinton agar; format: cell-based; settings: Gram − Ve; S. typhi; 37 °C, 18 h
# Procedure: (§1) Sterilized Nutrient agar medium was first prepared by dissolving 38 g of Müeller–Hinton agar (MHA) (Biolab, Midrand, Africa) in distilled water (1 L). […] The cooled Agar medium was poured in Petri dishes while ensuring a uniform 4 mm depth of the medium and cooling further to ambient temperature.
# (§2) These bacteria were inoculated in a sterilized Nutrient Broth (NB) (Biolab, Midrand, Africa) through streak plate technique and incubated at 37 °C for 18 h. The nutrient broth was sterilized by dissolving 1.3 g in distilled water (100 mL). Ca. 10 mL of the nutrient broth was transferred into a cotton wool-plugged test tubes and wrapped with an aluminium foil. […] Following this was the isolation of a single colony of the bacteria and inoculated into a 10 mL sterile NB which was then incubated in a shaking incubator at 37 °C for 18 h. Each of the bacteria strain concentrations was adjusted with sterile distilled water to get a final concentration of 1.5 × 10^8 cfu/mL, i.e., 0.5 Mc Farland’s Standard using a densitometer (Mc Farland Latvia). The bacteria were lawn inoculated on the set MHA Petri dishes using a sterile cotton swab. Screening of L1–L5 and Q1–Q15 for antibacterial activity was first carried out by spotting 5 µL of their solution (prepared from the dissolution of 1000 µg of the L1–L5 and Q1–Q15 in 1 mL dimethyl sulfoxide (DMSO)) on an MHA petri dish and incubated at 37 °C for 18 h. The antibacterial activity was determined by looking out for a clear zone at the spotting point.
# [9] = system: Pseudomonas aeruginosa ATCC 27853; assay: as above; format: cell-based; settings: Gram − Ve; P. aeruginosa; 37 °C, 18 h
# Procedure: as §1, §2
# [10] = system: Escherichia coli ATCC 25922; assay: as above; format: cell-based; settings: Gram − Ve; E. coli; 37 °C, 18 h
# Procedure: as §1, §2
# [11] = system: Staphylococcus aureus ATCC 25923; assay: as above; format: cell-based; settings: Gram + Ve; S. aureus; 37 °C, 18 h
# Procedure: as §1, §2
# [12] = system: Staphylococcus aureus ATCC 700699 (methicillin-resistant); assay: as above; format: cell-based; settings: Gram + Ve; methicillin-resistant S. aureus; 37 °C, 18 h
# Procedure: as §1, §2
# [13] = system: Klebsiella pneumoniae ATCC 31488; assay: as above; format: cell-based; settings: versus the standard (0.8 µg/mL)
# Procedure: as §1, §2
# Sequence of bovine serum albumin (BSA) (P02769 25-607): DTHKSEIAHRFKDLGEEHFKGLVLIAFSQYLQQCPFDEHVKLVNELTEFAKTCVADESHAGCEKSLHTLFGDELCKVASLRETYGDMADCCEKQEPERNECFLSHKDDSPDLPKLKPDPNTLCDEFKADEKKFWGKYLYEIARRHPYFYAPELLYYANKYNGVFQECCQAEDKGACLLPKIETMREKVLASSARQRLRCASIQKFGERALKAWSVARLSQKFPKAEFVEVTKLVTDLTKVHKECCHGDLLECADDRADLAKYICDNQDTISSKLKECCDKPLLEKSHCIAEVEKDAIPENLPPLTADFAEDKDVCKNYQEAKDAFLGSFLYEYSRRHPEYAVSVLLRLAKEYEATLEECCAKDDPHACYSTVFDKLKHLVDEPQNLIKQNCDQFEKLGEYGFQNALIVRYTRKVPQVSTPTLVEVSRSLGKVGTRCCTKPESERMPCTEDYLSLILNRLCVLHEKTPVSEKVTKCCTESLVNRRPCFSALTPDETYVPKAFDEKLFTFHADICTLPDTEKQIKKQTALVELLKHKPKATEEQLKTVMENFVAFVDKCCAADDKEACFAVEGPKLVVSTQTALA
Structure (SMILES),"Minimum inhibitory concentration, EC [1] [µg/mL]","Minimum inhibitory concentration, MRSA [2] [µg/mL]","Minimum inhibitory concentration, SA [3] [µg/mL]","Minimum inhibitory concentration, ST [4] [µg/mL]","Minimum inhibitory concentration, PA [5] [µg/mL]",Antioxidant (IC50 mg/mL) FRAP [6] [mg/mL],Protein-Complex Kb (M^−1) × 10^4 [7],CT-DNA-EB-Complex Ksv (M^−1) × 10^4 (CT-DNA-EB adduct),CT-DNA-EB-Complex Kq (M^−1S^−1) × 10^12 (CT-DNA-EB adduct),CT-DNA-EB-Complex Kbin (M^−1) × 10^5 (CT-DNA-EB adduct),CT-DNA-Cmp. Kb (M^−1) × 10^5 (calf thymus DNA (CT-DNA)),"Minimum inhibitory concentration, ST [8] [µg/mL]","Minimum inhibitory concentration, PA [9] [µg/mL]","Minimum inhibitory concentration, EC [10] [µg/mL]","Minimum inhibitory concentration, SA [11] [µg/mL]","Minimum inhibitory concentration, MRSA [12] [µg/mL]",activity times higher than the standard against K. pneumoniae [13] [times]
O=C(O)c1cn(C2CC2)c2cc(N3CCNCC3)c(F)cc2c1=O [Ciprofloxacin],1.6,25,25,0.4,0.2,,,,,,,,,,,,
"Cc1ccc(N=Cc2ccc3ccccc3n2)cc1.Cc1ccc(N=Cc2ccc3ccccc3n2)cc1.O=S(=O)([O-])C(F)(F)F.[Ag+] [Complex Q14, [Ag(L4)2]CF3SO3]",,,,,,3.55 ± 0.022,7.50 (M^−1) × 10^4,2.98 (M^−1) × 10^4,2.98 (M^−1S^−1) × 10^12,5.31 (M^−1) × 10^5,3.33 (M^−1) × 10^5,50,~0.8,25,50,1000,
"Clc1ccc(N=Cc2ccc3ccccc3n2)cc1.Clc1ccc(N=Cc2ccc3ccccc3n2)cc1.[Ag+].[O-][Cl+3]([O-])([O-])[O-] [Complex Q8, [Ag(L3)2]ClO4]",,,,,,3.27 ± 0.093,9.48 (M^−1) × 10^4,3.98 (M^−1) × 10^4,3.98 (M^−1S^−1) × 10^12,1.02 (M^−1) × 10^5,30.0 (M^−1) × 10^5,25,0.1,1.6,50,25,64
"O=[N+]([O-])[O-].[Ag+].c1ccc2nc(-c3nc4ccccc4s3)ccc2c1.c1ccc2nc(-c3nc4ccccc4s3)ccc2c1 [Complex Q2, [Ag(L2)2]NO3]",,,,,,1.10 ± 0.0044,7.97 (M^−1) × 10^4,2.68 (M^−1) × 10^4,2.68 (M^−1S^−1) × 10^12,5.03 (M^−1) × 10^5,3.00 (M^−1) × 10^5,50,12.5,25,25,50,
"C(=NCc1cccs1)c1ccc2ccccc2n1.C(=NCc1cccs1)c1ccc2ccccc2n1.O=[N+]([O-])[O-].[Ag+] [Complex Q5, [Ag(L5)2]NO3]",,,,,,2.04 ± 0.0032,5.95 (M^−1) × 10^4,2.31 (M^−1) × 10^4,2.31 (M^−1S^−1) × 10^12,1.03 (M^−1) × 10^5,4.00 (M^−1) × 10^5,12.5,,1.6,50,100,32
